Article PMC12583827, “Harnessing microbial-derived metabolites in the urinary tract to prevent infection induced catheter encrustation” (Nature Communications, 2025)
Structures can show the parent of a compound that is named as a salt.

Experiments:
[1] = design: method as in PMID 9792207; conditions: intraperitoneal injections; cited from earlier work
[2] = design: method as in PMID 9792207; conditions: administered into the lateral ventricle; cited from earlier work
UTI MRSA = experiment: Growth and viability of UTI MRSA in dampening metabolites; assay type: cell-based, Staphylococcus aureus
Procedure: (§1) 478 Supplementary Figure 20. Growth of M. morganii, P. stuartii and UTI MRSA incubated in
(§2) 479 dampening metabolites. M. morganii TA43 (A,D,G), P. stuartii BE2467(B,E,H), UTI MRSA
(§3) 480 (C,F,I) were incubated in urease dampening metabolites to assess impact on growth. Bacteria
(§4) 481 were cultured for ~18 hours in LB (Mm and Ps) or BHI (MRSA) broth, then diluted 1:100 into
(§5) 482 fresh broth with (A-C) the highest concentrations of dampening metabolites assessed for urease
(§6) 483 inhibition or (D-F) serial dilutions of D-imidazole lactate. Bacterial suspensions were incubated
(§7) 484 at 37 °C with double-orbital shaking, and OD600 was measured every 15 minutes for 18 hours.
(§8) 485 Error bars represent mean ± standard deviation (SD) from at least 3 technical replicates, and
(§9) 486 graphs are representative of 3 independent biologic experiments. (G-I) Viability of incubated in
(§10) 487 Mm, Ps or MRSA incubated in serial dilutions of D-imidazole lactate. Overnight cultures were
(§11) (1 picture or pasted object on this page, not shown here)
(§12) 488 subcultured to mid log phase, washed in potassium phosphate buffer, and diluted 1:10 in
(§13) 489 potassium phosphate buffer with and without D-imidazole lactate. Samples (n=3) were incubated
(§14) 490 at 37°C with aeration for one hour then plated and enumerated for colony forming units (CFU).

UTI MRSA urease = UTI MRSA urease activity assay; assay type: cell-based, Staphylococcus aureus; conditions: whole cell, urease broth
Procedure: 190 Omega and visualization was carried out using ESPript 3.0 (69), enabling comparison across
191 different clinical isolates. Urease genes, including the full operon from ureA to ureR, were
192 identified and extracted from the prokka annotated genomes. The extracted protein sequences
193 were subjected to sequence alignment using Clustal Omega and visualization was carried out
194 using ESPript 3.0 [8], enabling comparison across different clinical isolates.
195 UTI MRSA urease activity assay. The UTI MRSA urease assay was adapted from a recently-
196 published semi quantitative assay to measure urease activity in bacterial species with low overall
197 activity under standard conditions (50). Dampening metabolites were directly dissolved in urease
198 broth (1 g tryptone (RPI; CAS No. 91079-40-2), 1 g D(+)-glucose (RPI; CAS No. 50-99-7), 2 g
199 potassium phosphate monobasic anhydrous (VWR; Lot: 20C1356567), 5 g sodium chloride
201 of MilliQ water, pH 5.5, sterilized via autoclaving). UTI MRSA strains from overnight cultures
202 were harvested by centrifugation for 5 minutes at 10,000 g, washed with 1 volume of 1X
203 Phosphate Buffered Saline (PBS), and resuspended in urease broth. Bacterial cultures were […]
205 measured at 415 nm, 560 nm, and 600 nm every 20 mins for 24 hours, shaking at 37°C using a
206 BioTek Synergy|H1 microtiter plate reader. Urease activity was calculated by dividing the OD […]

[3] = test system: P. mirabilis urease operon (ureABC, ureEDF); experiment: Real-time quantitative PCR of urease operon; assay type: cell-based, Proteus mirabilis
Procedure: P. mirabilis was cultured for ~18 h in LB broth and then sub cultured until it reached mid-log growth phase (OD600 0.2-0.5). Cultures were spun down to pellet at 10,000 rcf for 10 minutes and resuspended in saline to a final OD600 of 1.0. Cultures were then diluted 1:10 into dampening metabolites buffered 1:10 in potassium phosphate buffer pH7 and supplemented with 500 mM urea. P. mirabilis in potassium phosphate buffer without urea served as a negative control. Cultures were incubated in potassium phosphate buffer with and without dampening metabolites at 37 °C with shaking for 15 minutes. RNA isolation, cDNA synthesis and RT qPCR were performed as described previously. […] A RNA integrity analysis using agarose gel electrophoresis on extracted RNA was performed for all samples to confirm no change in transcript stability (Supplementary Fig 16A). The data were analyzed according to the Relative Quantification (RQ) method by Pfaffl et al. 2001[54] (See Supplementary Information).
168 Real-time quantitative PCR analysis. The data were analyzed according to the Relative
169 Quantification (RQ) method by Pfaffl et al 2001 (56) in which P. mirabilis potassium phosphate
170 buffer without urea was considered as the ‘Control’ and P. mirabilis in potassium phosphate
171 buffer supplemented with 500mM urea with and without candidate dampening compounds were
172 the ‘Sample.’ The full equation is below.
(E )ΔCPtarget (control−sample)
174 Relative Quantification Ratio = target Equation 2
(Ereference)ΔCPreference (control−sample)
176 In this equation, E refers to the primer efficiency of the target gene (Etarget, urease operon
177 subunits) or the reference gene (Ereference, rpoA), and CP refers to the Cycle Point, or the cycle
178 number at which the signal exceeds the threshold. […]
183 for whole genome sequencing on the Illumina NextSeq2000 platform. Read trimming, and run
184 analytics were performed using Trimmomatic v0.39.0 (62). The processed reads were assembled
185 using spades v3.15.5 (63) wrapped in Unicycler v0.5.0 (64, 65). Read mapping was done using […]

M. morganii TA43 = experiment: Growth and viability of M. morganii in dampening metabolites; assay type: cell-based, Morganella morganii
Procedure: as §1, §2, §3, §4, §5, §6, §7, §8, §9, §10, §11, §12, §13, §14

isolated rabbit bladders = conditions: cited from earlier work
P. mirabilis urease = conditions: 104V0, 106V15, HU1069 compared with HI4320
Procedure: Urease activity was measured as described previously in triplicate with at least three biological replicates[21]. Briefly, bacteria were cultured for ~18 h in LB broth, concentrated to an OD600 of 4, washed once in saline, and diluted (1:10 for P. mirabilis and 1:50 for P. stuartii and M. morganii) into candidate dampening metabolites in potassium phosphate buffer or human urine pH7 and supplemented with 500 mM urea and 0.01% phenol red. Bacterial suspensions were distributed into a 96-well plate, incubated at 37 °C with double-orbital shaking in a Synergy H1 plate reader (BioTek), and absorbance (OD562) was measured every 60 seconds for 180 minutes. Isogenic urease mutants (Supplementary Data 1) served as negative controls for P. mirabilis and P. stuartii and a vehicle control served as a negative control for M. morganii.

[4] = test system: isolated guinea pig bladders; conditions: cited from earlier work
[5] = incubation in potassium phosphate, CFU

Cl.O=C(O)Cc1cnc[nH]1 [4-imidazole acetate, 2-(1H-Imidazol-5-yl)acetic acid hydrochloride]
effects in mice [1]: sleep-like state and a decrease in body temperature
blood pressure in cats [2]: dose-dependent decrease in blood pressure

O.O=C(O)[C@H](O)Cc1cnc[nH]1 [D-imidazole lactate, D-imidazolelactic acid hydrate]
growth of UTI MRSA (UTI MRSA; BHI broth): perturbed growth
antimicrobial activity against UTI MRSA (UTI MRSA; [5]): less-pronounced antimicrobial activity
reduction in CFUs of UTI MRSA (UTI MRSA; one h incubation in potassium phosphate buffer): one log reduction
urease activity in MRSA (UTI MRSA urease): least potent
relative expression of urease mRNA transcripts ([3]; 15-minute incubation, 500 mM urea): decreased
pool of rpoA mRNA transcripts ([3]; 15 minutes incubation): did not affect
growth of M. morganii (M. morganii TA43; LB broth): perturbed growth
antimicrobial activity against M. morganii TA43 (M. morganii TA43; [5]): robust antimicrobial activity

NCCc1c[nH]cn1 [Histamine, histamine dihydrochloride]
response of isolated rabbit bladders (isolated rabbit bladders): induce a contractile response
urease-dampening activity against P. mirabilis clinical isolates (P. mirabilis urease): slightly less potent
response of isolated guinea pig bladders [4]: induce a contractile response
